Measurements reported in patent US6630469B2, “5-HT7 receptor antagonists” (Bristol-Myers Squibb Company, priority 2000, dated 2003).

Molecular target: T1, human 5-HT7 receptor (Homo sapiens, UniProt P34969)
T1 construct: expressed in transfected cells; host or cells: CHO cells
Experiment: 5-HT7 Receptor Binding Assay
Details: membranes of CHO cells expressing human 5-HT7 receptor; 1 nM 3H-5-carboxamidotryptamine; 25° C., 60 minutes
Protocol: 5-HT7 Receptor Binding Assay
Membranes are prepared for binding using the human 5-HT7 receptor expressed in CHO cells. Cells are collected and ruptured using a dounce homogenizer. The cells are spun at 18000× g for 10 minutes and the pellet is resuspended in assay buffer, frozen in liquid nitrogen and kept at −80° C. until the day of the assay.
A total of 30 ug protein is used per well. The assay is carried out in 96-deep-well plates. The assay buffer is 50 mM HEPES. The membrane preparation is incubated at 25° C. for 60 minutes with 0.1 nM to 1000 nM test compound and 1 nM ^3H-5-carboxamidotryptamine. 10 uM serotonin is used as blocking agent to determine non-specific binding. The reaction is terminated by the addition of 1 ml of ice cold 5OmM HEPES buffer and rapid filtration through a Brandel Cell Harvester using Whatman GF/B filters. The filter pads are counted in an LKB Trilux liquid scintillation counter. IC50 values are determined using non-linear regression by Exel-fit.

T1 sequence (P34969 whole entry): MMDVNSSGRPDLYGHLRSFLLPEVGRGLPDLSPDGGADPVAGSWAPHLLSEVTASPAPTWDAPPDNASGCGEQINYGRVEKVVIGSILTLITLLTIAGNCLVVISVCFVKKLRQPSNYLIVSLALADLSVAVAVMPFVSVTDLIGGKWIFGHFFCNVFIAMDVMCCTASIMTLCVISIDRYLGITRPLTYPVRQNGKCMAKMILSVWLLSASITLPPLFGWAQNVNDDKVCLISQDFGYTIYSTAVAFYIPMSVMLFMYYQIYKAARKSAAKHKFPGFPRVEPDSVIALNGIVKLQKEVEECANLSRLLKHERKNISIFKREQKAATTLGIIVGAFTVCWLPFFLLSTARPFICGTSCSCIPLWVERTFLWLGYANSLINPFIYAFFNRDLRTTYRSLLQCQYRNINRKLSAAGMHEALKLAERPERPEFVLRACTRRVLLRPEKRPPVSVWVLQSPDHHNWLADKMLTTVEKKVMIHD

| Compound | IC50 [nM] |
| --- | --- |
| CC[C@H](Nc1nc(N)nc(NCCOc2ccccc2)n1)c1ccccc1 [Compound 40, N^2-[2-(Phenoxy)ethyl]-N^4-[(1S)-1-phenylpropyl]-1,3,5-triazine-2,4,6-triamine] | 51 to 100 |
| C[C@H](Nc1nc(N)nc(NCCOc2ccccc2)n1)c1ccccc1 [Compound 41, N^2-[2-(Phenoxy)ethyl]-N^4-[(1S)-1-phenylethyl]-1,3,5-triazine-2,4,6-triamine] | 51 to 100 |
| C[C@H](Nc1nc(N)nc(NCCOc2ccccc2)n1)c1cccc2ccccc12 [Compound 42, N^2-[(1S)-1-(1-Napthyl)ethyl]-N^4-[2-(phenoxy)ethyl]-1,3,5-triazine-2,4,6-triamine] | 51 to 100 |
| C[C@H](Nc1nc(N)nc(NCCOc2ccc(F)cc2)n1)c1ccc([N+](=O)[O-])cc1 [Compound 45, N^2-[2-(4-Fluorophenoxy)ethyl]-N^4-[(1S)-1-(4-nitrophenyl)ethyl]-1,3,5-triazine-2,4,6-triamine] | 51 to 100 |
| C[C@H](Nc1nc(N)nc(NCCOc2ccc(F)c(F)c2)n1)c1ccc([N+](=O)[O-])cc1 [Compound 47, N^2-[2-(3,4-Difluorophenoxy)ethyl]-N^4-[(1S)-1-(4-nitrophenyl)ethyl]-1,3,5-triazine-2,4,6-triamine] | 51 to 100 |
| C[C@H](Nc1nc(N)nc(NCCc2ccccc2F)n1)c1ccccc1 [Compound 48, N^2-[2-(2-Fluorophenyl)ethyl]-N^4-[(1S)-1-phenylethyl]-1,3,5-triazine-2,4,6-triamine] | 51 to 100 |
| CC[C@H](Nc1nc(N)nc(NCCc2ccc(C)cc2)n1)c1ccccc1 [Compound 49, N^2-[2-(4-Methylphenyl)ethyl]-N^4-[(1S)-1-phenylpropyl]-1,3,5-triazine-2,4,6-triamine] | 51 to 100 |
| C[C@H](Nc1nc(N)nc(NCCc2ccc(Cl)cc2)n1)c1ccccc1 [Compound 50, N^2-[2-(4-Chlorophenyl)ethyl]-N^4-[(1S)-1-phenylethyl]-1,3,5-triazine-2,4,6-triamine] | 51 to 100 |
| CC[C@H](Nc1nc(N)nc(NCCc2ccccc2F)n1)c1ccccc1 [Compound 51, N^2-[2-(2-Fluorophenyl)ethyl]-N^4-[(1S)-1-phenylpropyl]-1,3,5-triazine-2,4,6-triamine] | 51 to 100 |
| CC[C@H](Nc1nc(N)nc(NCCc2cccc(OC)c2)n1)c1ccccc1 [Compound 52, N^2-[2-(3-Methoxyphenyl)ethyl]-N^4-[(1S)-1-phenylpropyl]-1,3,5-triazine-2,4,6-triamine] | 51 to 100 |
| C[C@H](Nc1nc(N)nc(NCCc2cccc(C(F)(F)F)c2)n1)c1ccccc1 [Compound 53, N^2-[(1S)-1-Phenylethyl]-N^4-{2-[3-(trifluoromethyl)phenyl]ethyl}-1,3,5-triazine-2,4,6-triamine] | 51 to 100 |
| COc1cccc(CCNc2nc(N)nc(N[C@@H](C)c3ccccc3)n2)c1 [Compound 54, N^2-[2-(3-Methoxyphenyl)ethyl]-N^4-[(1S)-1-phenylethyl]-1,3,5-triazine-2,4,6-triamine] | 51 to 100 |
| C[C@H](Nc1nc(N)nc(NCCc2cccc(C#N)c2)n1)c1ccccc1 [Compound 55, N^2-[2-(3-Cyanophenyl)ethyl]-N^4-[(1S)-1-phenylethyl]-1,3,5-triazine-2,4,6-triamine] | 51 to 100 |
| C[C@H](Nc1nc(N)nc(NCCc2ccccc2)n1)c1cccc2ccccc12 [Compound 56, N^2-[(1S)-1-(1-Napthalenyl)ethyl]-N^4-(2-phenylethyl)-1,3,5-triazine-2,4,6-triamine] | 51 to 100 |
| C[C@H](Nc1nc(N)nc(NCCC2=CCCCC2)n1)c1ccccc1 [Compound 57, N^2-[2-(1-Cyclohexenyl)ethyl]-N^4-[(1S)-1-phenylethyl]-1,3,5-triazine-2,4,6-triamine] | 51 to 100 |
| C[C@H](Nc1nc(N)nc(NCCc2cccc(Cl)c2)n1)c1ccc([N+](=O)[O-])cc1 [Compound 58, N^2-[2-(3-Chlorophenyl)ethyl]-N^4-[(1S)-1-(4-nitrophenyl)ethyl]-1,3,5-triazine-2,4,6-triamine] | 51 to 100 |
| C[C@H](Nc1nc(N)nc(NCCc2ccc(Cl)cc2)n1)c1ccc([N+](=O)[O-])cc1 [Compound 59, N^2-[2-(4-Chlorophenyl)ethyl]-N^4-[(1S)-1-(4-nitrophenyl)ethyl]-1,3,5-triazine-2,4,6-triamine] | 51 to 100 |
| CC[C@H](Nc1nc(N)nc(NCCc2cccc(Cl)c2)n1)c1ccccc1 [Compound 69, N^2-[2-(3-Chlorophenyl)ethyl]-N^4-[(1S)-1-phenylpropyl]-1,3,5-triazine-2,4,6-triamine] | ≤ 50 |
| C[C@H](Nc1nc(N)nc(NCCc2ccc(F)cc2)n1)c1ccc(Br)cc1 [Compound 70, N^2-[(1S)-1-(4-Bromophenyl)ethyl]-N^4-[2-(4-fluorophenyl)ethyl]-1,3,5-triazine-2,4,6-triamine] | ≤ 50 |
| C[C@H](Nc1nc(N)nc(NCCc2ccc(Cl)c(Cl)c2)n1)c1ccccc1 [Compound 71, N^2-[2-(3,4-Dichlorophenyl)ethyl]-N^4-[(1S)-1-phenylethyl]-1,3,5-triazine-2,4,6-triamine] | ≤ 50 |

Results, then the compound that gave them:

| IC50 [nM] | Compound |
| --- | --- |
| ≤ 50 | C[C@H](Nc1nc(N)nc(NCCc2ccccc2)n1)c1ccccc1 [Compound 60, N^2-[(1S)-1-Phenylethyl]-N^4-(2-phenylethyl)-1,3,5-triazine-2,4,6-triamine] |
| ≤ 50 | C[C@H](Nc1nc(N)nc(NCCc2cccc(F)c2)n1)c1ccccc1 [Compound 61, N^2-[2-(3-Fluorophenyl)ethyl]-N^4-[(1S)-1-phenylethyl]-1,3,5-triazine-2,4,6-triamine] |
| ≤ 50 | C[C@H](Nc1nc(N)nc(NCCc2cccc(Cl)c2)n1)c1ccccc1 [Compound 62, N^2-[2-(3-Chlorophenyl)ethyl]-N^4-[(1S)-1-phenylethyl]-1,3,5-triazine-2,4,6-triamine] |
| ≤ 50 | CC[C@H](Nc1nc(N)nc(NCCc2cccc(F)c2)n1)c1ccccc1 [Compound 63, N^2-[2-(3-Fluorophenyl)ethyl]-N^4-[(1S)-1-phenylpropyl]-1,3,5-triazine-2,4,6-triamine] |
| ≤ 50 | C[C@H](Nc1nc(N)nc(NCCc2ccc(F)cc2)n1)c1ccccc1 [Compound 64, N^2-[2-(4-Fluorophenyl)ethyl]-N^4-[(1S)-1-phenylethyl]-1,3,5-triazine-2,4,6-triamine] |
| ≤ 50 | CC[C@H](Nc1nc(N)nc(NCCc2ccccc2)n1)c1ccccc1 [Compound 65, N^2-2-Phenylethyl-N^4-[(1S)-1-phenylpropyl]-1,3,5-triazine-2,4,6-triamine] |
| ≤ 50 | C[C@H](Nc1nc(N)nc(NCCc2cccc(Br)c2)n1)c1ccccc1 [Compound 66, N^2-[2-(3-Bromophenyl)ethyl]-N^4-[(1S)-1-phenylethyl]-1,3,5-triazine-2,4,6-triamine] |
| ≤ 50 | CC[C@H](Nc1nc(N)nc(NCCc2ccc(F)cc2)n1)c1ccccc1 [Compound 67, N^2-[2-(4-Fluorophenyl)ethyl]-N^4-[(1S)-1-phenylpropyl]-1,3,5-triazine-2,4,6-triamine] |
| ≤ 50 | C[C@H](Nc1nc(N)nc(NCCc2cccc(F)c2)n1)c1ccc(Br)cc1 [Compound 68, N^2-[(1S)-1-(4-Bromophenyl)ethyl]-N^4-[2-(3-fluorophenyl)ethyl]-1,3,5-triazine-2,4,6-triamine] |
